# Test results reported in ChEMBL document CHEMBL1133860, “Synthesis and biological evaluation of a series of novel N- or O-fluoroalkyl derivatives of tropane: potential positron emission tomography (PET) imaging agents for the dopamine transporter” (Bioorg Med Chem Lett, 2001).
# Columns and labels:
# [1] = target: Sodium-dependent dopamine transporter (Rattus norvegicus, UniProt P23977); test: Ability to displace [3H]- beta-CIT from Dopamine transporter in rat striatal homogenate
# [2] = target: Norepinephrine transporter (Rattus norvegicus, UniProt Q9WTR4); test: Ability to displace [3H]- nisoxetin from Norepinephrine transporter in rat cerebral cortical homogenate
# Norepinephrine transporter, sequence (Q9WTR4 whole entry): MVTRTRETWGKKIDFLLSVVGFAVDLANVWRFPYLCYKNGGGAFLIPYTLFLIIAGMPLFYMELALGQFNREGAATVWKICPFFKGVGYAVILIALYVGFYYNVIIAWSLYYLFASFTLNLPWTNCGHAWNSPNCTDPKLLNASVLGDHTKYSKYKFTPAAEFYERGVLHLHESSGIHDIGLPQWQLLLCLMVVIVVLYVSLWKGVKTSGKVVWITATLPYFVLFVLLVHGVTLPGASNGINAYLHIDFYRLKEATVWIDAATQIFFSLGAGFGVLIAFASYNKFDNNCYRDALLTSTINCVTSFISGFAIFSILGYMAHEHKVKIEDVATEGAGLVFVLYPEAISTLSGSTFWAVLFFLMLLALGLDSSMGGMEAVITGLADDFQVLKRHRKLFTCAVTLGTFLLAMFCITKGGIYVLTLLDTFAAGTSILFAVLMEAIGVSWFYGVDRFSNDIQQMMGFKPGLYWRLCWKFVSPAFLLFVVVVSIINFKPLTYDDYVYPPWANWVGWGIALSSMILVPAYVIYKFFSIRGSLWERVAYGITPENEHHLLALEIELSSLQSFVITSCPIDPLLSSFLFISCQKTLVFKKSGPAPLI
# [3] = target: Sodium-dependent serotonin transporter (Rattus norvegicus, UniProt P31652); test: Ability to displace [3H]- paroxetine from Serotonin transporter in rat cerebral cortical homogenate
# Sodium-dependent serotonin transporter, sequence (P31652 whole entry): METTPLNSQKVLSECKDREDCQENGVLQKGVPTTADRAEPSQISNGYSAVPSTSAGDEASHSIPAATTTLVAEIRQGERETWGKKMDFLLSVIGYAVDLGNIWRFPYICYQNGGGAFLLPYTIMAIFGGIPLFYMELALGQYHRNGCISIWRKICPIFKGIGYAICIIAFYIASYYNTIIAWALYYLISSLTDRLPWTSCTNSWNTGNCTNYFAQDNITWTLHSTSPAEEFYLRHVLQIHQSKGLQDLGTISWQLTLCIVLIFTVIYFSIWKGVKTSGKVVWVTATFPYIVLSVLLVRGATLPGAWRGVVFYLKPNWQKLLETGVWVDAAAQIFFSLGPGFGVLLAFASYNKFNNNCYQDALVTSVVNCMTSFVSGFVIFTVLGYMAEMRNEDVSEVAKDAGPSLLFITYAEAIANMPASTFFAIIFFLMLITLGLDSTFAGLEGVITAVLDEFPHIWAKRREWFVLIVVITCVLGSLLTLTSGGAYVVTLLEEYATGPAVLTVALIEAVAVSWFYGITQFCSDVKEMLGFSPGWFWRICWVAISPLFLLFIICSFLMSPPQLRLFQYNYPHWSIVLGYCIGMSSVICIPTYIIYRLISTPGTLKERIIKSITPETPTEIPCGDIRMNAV
# [4] = system: Monoamine transporters; Norepinephrine & dopamine; test: Selectivity for DAT determined as ratio of binding affinity for NET to that for DAT; type: protein assay
# [5] = system: Monoamine transporters; serotonin & dopamine; test: Selectivity for DAT determined as ratio of binding affinity for SERT to that for DAT; type: protein assay
# Sodium-dependent dopamine transporter, sequence (P23977 whole entry): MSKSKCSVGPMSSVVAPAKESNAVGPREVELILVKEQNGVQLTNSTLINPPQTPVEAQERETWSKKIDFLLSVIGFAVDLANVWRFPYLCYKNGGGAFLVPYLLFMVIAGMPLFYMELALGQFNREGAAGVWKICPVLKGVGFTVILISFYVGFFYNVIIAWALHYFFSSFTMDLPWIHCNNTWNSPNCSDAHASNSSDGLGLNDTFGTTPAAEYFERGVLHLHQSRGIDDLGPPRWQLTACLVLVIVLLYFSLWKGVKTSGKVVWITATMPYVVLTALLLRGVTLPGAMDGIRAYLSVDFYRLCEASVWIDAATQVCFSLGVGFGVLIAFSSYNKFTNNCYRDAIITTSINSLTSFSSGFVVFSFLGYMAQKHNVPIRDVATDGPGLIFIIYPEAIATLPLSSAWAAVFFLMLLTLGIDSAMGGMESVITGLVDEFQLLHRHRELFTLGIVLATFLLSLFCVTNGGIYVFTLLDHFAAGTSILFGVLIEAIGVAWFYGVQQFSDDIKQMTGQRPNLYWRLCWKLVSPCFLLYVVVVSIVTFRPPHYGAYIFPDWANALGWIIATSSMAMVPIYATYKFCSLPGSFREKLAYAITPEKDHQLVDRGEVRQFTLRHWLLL
smiles,measurement,setting,value
CN1C2CCC1C(C(=O)OCCF)C(c1ccc(I)cc1)C2 (configuration not stated),Ki,[1],0.93 nM
same,Ki,[2],173 nM
same,Ki,[3],1.65 nM
same,Selectivity ratio,[4],112
same,Selectivity ratio,[5],1.1
COC(=O)C1C(c2ccc(Br)cc2)CC2CCC1N2CCCF (configuration not stated),Ki,[1],3.33 nM
same,Ki,[2],196 nM
same,Ki,[3],36.4 nM
same,Selectivity ratio,[4],58.9
same,Selectivity ratio,[5],10.9
CN1C2CCC1C(C(=O)OCCCF)C(c1ccc(I)cc1)C2 (configuration not stated),Ki,[1],1.54 nM
same,Ki,[2],173 nM
same,Ki,[3],1.65 nM
same,Selectivity ratio,[4],112
same,Selectivity ratio,[5],1.1
COC(=O)C1C2CCC(CC1c1ccc(I)cc1)N2 (configuration not stated),Ki,[1],0.64 nM
same,Ki,[2],1.85 nM
same,Ki,[3],0.06 nM
same,Selectivity ratio,[4],2.9
same,Selectivity ratio,[5],0.1
COC(=O)C1C(c2ccc(C)cc2)CC2CCC1N2CCF (configuration not stated),Ki,[1],32.1 nM
same,Ki,[2],268 nM
same,Ki,[3],375 nM
same,Selectivity ratio,[4],8.4
same,Selectivity ratio,[5],11.7
Cc1ccc(C2CC3CCC(C2C(=O)OCCCF)N3C)cc1 (configuration not stated),Ki,[1],7.17 nM
same,Ki,[2],260 nM
same,Ki,[3],325 nM
same,Selectivity ratio,[4],36.3
same,Selectivity ratio,[5],45.3
COC(=O)C1C(c2ccc(I)cc2)CC2CCC1N2CCCF (configuration not stated),Ki,[1],8.29 nM
same,Ki,[3],1.68 nM
same,Selectivity ratio,[4],7.6
same,Selectivity ratio,[5],0.2
COC(=O)C1C(c2ccc(C)cc2)CC2CCC1N2CCCF (configuration not stated),Ki,[1],37.6 nM
same,Ki,[2],1210 nM
same,Ki,[3],1310 nM
same,Selectivity ratio,[4],32.1
same,Selectivity ratio,[5],34.9
O=C(OCCF)C1C(c2ccc(I)cc2)CC2CCC1N2CCCF (configuration not stated),Ki,[1],8.71 nM
same,Ki,[2],723 nM
same,Ki,[3],13.3 nM
same,Selectivity ratio,[4],83
same,Selectivity ratio,[5],1.5
COC(=O)[C@@H]1C2CC[C@H](C[C@@H]1c1ccc(I)cc1)N2C,Ki,[1],1.33 nM
same,Selectivity ratio,[4],2.1
same,Selectivity ratio,[5],0.4
